This passage reports melting point, EC50 and Maximum stimulation results from patent publication US7064116B2, “GABAA modulating neurosteroids” (priority 2000, dated 2006).

Molecules are shown by their SMILES.

Data set [1] has as its target benzodiazepine site of the GABAA/BZ/chloride channel complex (rat brain GBR enriched synaptosomal preparation). Nature of the data set: Enhancement of [3H]-Flunitrazepam binding to the benzodiazepine site in rat brain synaptosomal membranes. The following applies: for EC50: enhancement of 1 nM [3H]-Flunitrazepam binding, 40 μg rat brain synaptosomal membrane, 30° C., 30 min; for Maximum stimulation: maximum stimulation of 1 nM [3H]-Flunitrazepam specific binding, normalized to control without test compound.

As a reminder, the melting point is the temperature of the solid-liquid transition. For orientation: EC50 means the midpoint of the concentration-response curve. `C#CC(OC)[C@H]1CC[C@H]2[C@@H]3CC[C@H]4C[C@H](O)CC[C@]4(C)[C@H]3CC[C@]12C` (mixture of isomers) [17β-(1-methoxy-2-propynyl)-5α-androstan-3α-ol (mixture of C-20 epimers), 17β-(1-methoxy-2-propynyl)-5α-androstan-3α-ol] registered a melting point of 161 to 163 °C. Moreover, in data set [1], the EC50 is 4.48 nM and the Maximum stimulation came to 18.1%.
For `C=C=CC(O)[C@H]1CC[C@H]2[C@@H]3CC[C@H]4CC(O)CC[C@]4(C)[C@H]3CC[C@]12C` (mixture of isomers) [17β-(1-hydroxy-2,3-butadienyl)-5α-androstane-3ol (mixture of C-20 epimers), 17β-(1-hydroxy-2,3-butadienyl)-5α-androstane-3-ol] the same measures were 174 to 177 °C, 5.9 nM and 45.8%.
For `Cc1ccc(C#C[C@H]2CC[C@H]3[C@@H]4CC[C@H]5C[C@H](O)CC[C@]5(C)[C@H]4CC[C@]23C)cc1` [17β-[2-(4-tolyl)ethynyl]-5α-androstane-3α-ol] the same measures were 178 to 180 °C, 2380 nM and 52.6%.
As to `CC(=O)C#C[C@H]1CC[C@H]2[C@@H]3CC[C@H]4C[C@H](O)CC[C@]4(C)[C@H]3CC[C@]12C` [17β-(3-oxo-1-butynyl)-5α-androstan-3α-ol], the melting point was 148 to 150 °C. Moreover, the EC50 result in data set [1] was “inactive”.
The compound `C[C@]12CC[C@@H](O)C[C@@H]1CC[C@@H]1[C@@H]2CC[C@]2(C)[C@@H](C#CBr)CC[C@@H]12` [17β-(2-bromoethynyl)-5α-androstane-3α-ol] had a melting point of 165 to 167 °C. In data set [1], the EC50 stood at 326 nM and the Maximum stimulation was 72.7%.
`COc1ccc(C#CC(O)[C@H]2CC[C@H]3[C@@H]4CC[C@H]5C[C@H](O)CC[C@]5(C)[C@H]4CC[C@]23C)cc1` (single isomer, unassigned) [17β-[1-hydroxy-3-(4-methoxyphenyl)-2-propynyl]-5α-androstan-3α-ol]: in data set [1], the EC50 was found to be 36.3 nM and the Maximum stimulation is 23.3%.
`CC(O)C#C[C@H]1CC[C@H]2[C@@H]3CC[C@H]4C[C@H](O)CC[C@]4(C)[C@H]3CC[C@]12C` (stereo partly drawn) [17β-(3-hydroxy-1-butynyl)-5α-androstane-3α-ol]: the melting point was 169 to 171 °C. In addition, the EC50 entry in data set [1] was “inactive”.
Take `C#CC(O)[C@H]1CC[C@H]2[C@@H]3CC[C@H]4CC(O)CC[C@]4(C)[C@H]3CC[C@]12C` (single isomer, unassigned) [17β-(1-hydroxy-2-propynyl)-5α-androstan-3-ol (less polar C-20 epimer), 17β-(1-hydroxy-2-propynyl)-5α-androstan-3-ol]: in data set [1], the EC50 entry is “inactive”.
Compound `C[C@]12CC[C@@H](N=[N+]=[N-])C[C@@H]1CC[C@@H]1[C@@H]2CC[C@]2(C)[C@@H](C(=O)CN=[N+]=[N-])CC[C@@H]12` [3α,21-di-azido-5α-pregnan-20-one] registered a melting point of 133 to 135 °C. Further, in data set [1], the EC50 turned out to be 314 nM and the Maximum stimulation was 16.4%.
For `COC(=O)C#C[C@H]1CC[C@H]2[C@@H]3CC[C@H]4C[C@H](O)CC[C@]4(C)[C@H]3CC[C@]12C` [17β-(2-methoxycarbonylethynyl)-5α-androstane-3α-ol] the same measures were 135 to 137 °C, 515 nM and 55.6%.
The compound `CC(=O)[C@H]1CC[C@H]2[C@@H]3CC[C@H]4C[C@H](N=[N+]=[N-])CC[C@]4(C)[C@H]3CC[C@]12C` [3α-azido-5α-pregnan-20-one, 3α-Azido-5α-pregnan-20-one] showed a melting point of 159 to 162 °C. For the same compound, the EC50 result in data set [1] was “inactive”.
`C[C@]12CC[C@@H](N=[N+]=[N-])C[C@@H]1CC[C@@H]1[C@@H]2CC[C@]2(C)[C@@H](C(=O)CBr)CC[C@@H]12` gave a melting point of 108 to 110 °C.
Turning to `CC(=O)[C@H]1CC[C@H]2[C@@H]3CC[C@H]4C[C@H](O)CC[C@]4(C)[C@H]3CC[C@]12C` [3α-hydroxy-5α-pregnan-20-one, reference compound], in data set [1], the EC50 came out at 212 nM and the Maximum stimulation was determined as 36%.
